According to patent publication EP2832347B1, “Method for identifying patchouli odorant materials” (Takasago International Corporation, priority 2013, dated 2015):
Where “and” joins values, the source holds several entries; their conditions need not be identical. Equal entries are not always repeated.

Test: Long-lasting analysis on scent strip (GC-MS with internal standard)
Format: physicochemical
Conditions: for PA (GC-MS signal), sample 1-3 / Ratio PA/IS, sample 1-3: individual scent strips, listed as PA
Description: In one embodiment, the long-lasting analysis is carried out as follows: 50 µl of a 1 % solution of the identified candidate to be tested in alcohol, preferably ethanol, are applied on a scent strip, preferably a cellulosic scent strip, to be dosed. The strip is allowed to dry under ambient laboratory conditions, with normal room air movement, in particular no fan, heating or any mean or device to accelerate evaporation. After different times, each strip or at least the part of the scent strip including the area where the solution of the identified candidate to be tested was applied is extracted using 3 ml of alcohol, preferably ethanol, containing an internal standard, such as methyl decanoate. The extracts are then analyzed by gas chromatography and the result is normalized for the principal molecular ion of the identified candidate using the value for the internal standard.
50 µl of a 1 % solution of patchouli alcohol in ethanol was added by pipette to the tip to a series of different scent strips (SARL H. GRANGER-VEYRON, Privas, France). The strips were allowed to dry under ambient laboratory conditions.
After different times (t0, t0+1hour, t0+2hours, t0+4hours, t0+8hours) the tip of a strip where the 50 µl of the solution of the tested material had been applied was cut and put in a 30 ml bottle and extracted using 3 ml of ethanol, containing 50 µl of methyl decanoate as internal standard (10000 ppm solution in cyclohexane), added to each bottle. Care was taken to ensure the entire area around the point of application was included in the area that was cut and extracted. The content of the bottles was mixed for 30 min on a roller bed, and 2 ml vials were then filled with each sample.
Samples were triplicated, i.e. 3 scent strip tips were analysed for each time point.
In a first series of experiments, samples taken at t0, t0+1hour and t0+2hours were analyzed by GC-MS on a […] gas chromatography column (column BC-WAX (50m * 0.25mm * 0.15µm) which is a GC Sciences column supplied by Interchim, Montluçon, France).
In a second series of experiments, samples taken at t0, t0+4hours and t0+8hours were analyzed by GC-MS on a non-polar gas chromatography column (HP-5MS UI (30m * 0.25mm * 0.25µm) which is an Agilent column supplied by Chromoptic, Courtaboeuf, France).
In Tables 6-11, PA stands for patchouli alcohol and IS stands for the internal standard, i.e. methyl decanoate. When plotting the residual concentration of patchouli on the scent strip as a function of time, the mean ratio at t0 was normalized to 100 and then t0+1h, t0+2h, t0+4h and t0+8h were calculated; t0 being defined as 2 minutes after dosing the 50 µl of the solution of the tested material, which was applied towards the tip of the scent strip.
A "long-lasting" analysis of pogostone was performed as described in Example 5 with samples taken at t0, t0+1hour and t0+2hours.
In Tables 12-14 herebelow, POG stands for pogostone and IS stands for the internal standard, i.e. methyl decanoate. The mean ratio at t0 was normalized as described in Example 5.

[1] = t0, second series, HP-5MS UI column

C[C@H]1CC[C@@]2(O)C(C)(C)[C@@H]3CC[C@@]2(C)[C@H]1C3 [Patchouli alcohol]
retained initial concentration (after 1 hour on scent strip): at least 10%
PA (GC-MS signal), mean value (t0+1h, BC-WAX column): 2.09E+06
Ratio PA/IS, mean value (t0+1h, BC-WAX column): 6.70E-01
PA (GC-MS signal), sample 1-3 (t0+1h, BC-WAX column): 2.10E+06 and 2.12E+06 and 2.05E+06
Ratio PA/IS, sample 1-3 (t0+1h, BC-WAX column): 6.50E-01 and 7.16E-01 and 6.43E-01
PA (GC-MS signal), mean value (t0+2h, BC-WAX column): 1.35E+06
Ratio PA/IS, mean value (t0+2h, BC-WAX column): 4.29E-01
PA (GC-MS signal), sample 1-3 (t0+2h, BC-WAX column): 1.38E+06 and 1.32E+06 and 1.35E+06
Ratio PA/IS, sample 1-3 (t0+2h, BC-WAX column): 3.74E-01 and 4.52E-01 and 4.62E-01
PA (GC-MS signal), mean value (t0+4h, HP-5MS UI column): 3.26E+06
Ratio PA/IS, mean value (t0+4h, HP-5MS UI column): 4.15E-01
PA (GC-MS signal), sample 1-3 (t0+4h, HP-5MS UI column): 3.83E+06 and 2.94E+06 and 3.00E+06
Ratio PA/IS, sample 1-3 (t0+4h, HP-5MS UI column): 4.67E-01 and 3.89E-01 (2×)
PA (GC-MS signal), mean value (t0+8h, HP-5MS UI column): 1.58E+06
Ratio PA/IS, mean value (t0+8h, HP-5MS UI column): 1.86E-01
PA (GC-MS signal), sample 1-3 (t0+8h, HP-5MS UI column): 2.02E+06 and 1.37E+06 and 1.35E+06
Ratio PA/IS, sample 1-3 (t0+8h, HP-5MS UI column): 2.16E-01 and 1.77E-01 and 1.65E-01
PA (GC-MS signal), mean value (t0, BC-WAX column): 2.93E+06
Ratio PA/IS, mean value (t0, BC-WAX column): 9.67E-01
PA (GC-MS signal), sample 1-3 (t0, BC-WAX column): 2.98E+06 and 2.87E+06 and 2.94E+06
Ratio PA/IS, sample 1-3 (t0, BC-WAX column): 9.42E-01 and 9.89E-01 and 9.69E-01
PA (GC-MS signal), mean value [1]: 9.18E+06
Ratio PA/IS, mean value [1]: 1.24E+00
PA (GC-MS signal), sample 1-3 [1]: 9.37E+06 and 9.23E+06 and 8.94E+06
Ratio PA/IS, sample 1-3 [1]: 1.25E+00 and 1.22E+00 and 1.26E+00
